From patent publication US12479858B2, “Macrocyclic compounds as sting agonists and methods and uses thereof” (Lupin Limited, priority 2019, dated 2025)
≈ marks a conversion by molar mass, not a printed value. Where a name gives a salt, the structure may show the parent alone.

Columns and labels:
[1] = target: T1, Human STING (Homo sapiens, UniProt Q86WV6, G230A/H232R/R293Q/R71H); experiment: Stimulation of human STING signaling in THP1 cell line (THP1-Blue ISG SEAP reporter); type: cell-based; details: THP1-Blue ISG cells, SEAP activity, 18-20 hours
T1 construct: using human THP1-Blue™ ISG SEAP based reporter cell line (Invivogen); host or cells: THP1-Blue ISG cells (human monocytic THP-1 derived SEAP reporter line)
Method: Biological Assay—Stimulation of Human STING Signaling in THP1 Cell Line
Compounds were tested for their STING activation potential using human THP1-Blue™ ISG SEAP based reporter cell line (Invivogen). Briefly, THP1-Blue ISG cells (100,000 cells/well) in 96 well plate were treated with varying concentrations of test and reference compounds and incubated at 37° C. with 5% CO2 for 18-20 hours. The control untreated cells were also set up. Post incubation, the cell supernatant was tested for SEAP (Secreted Embryonic Alkaline Phosphatase) activity using the QuantiBlue™ substrate reagent (Invivogen). The formation of blue coloured product was quantified by measuring absorbance at wavelength of 620 nm using PheraStar/Tecan reader. The average of duplicate readouts for each data point was plotted in GraphPad prism 6 against the concentration of test or reference compound to calculate EC50 value. The fold of SEAP induction or increase in luminescence at different data points was estimated against the un-stimulated cell control set.

[2] = Apparent solubility/extended kinetic solubility by UHPLC; type: physicochemical; details: aqueous buffer, thermodynamic from solid, phosphate buffer, 37° C.
Method: Biological Assay—Determination of Apparent Solubility/Extended Kinetic Solubility by UHPLC
Test sample preparation: About 0.5 mg of the test sample was weighed and transferred in duplicate in 1 mL glass inserts of 96 well plates. 5 μL of DMSO and 1 ml of phosphate buffer were added. Allowed for equilibrium in an orbital shaker at 37° C. for 24 hrs. Later, allowed it cool to room temperature and centrifuged the 96 well plate (at 240×10 RPM for 20 min) and supernatant material was taken into collection plate, covered it with the heat resistant aluminum sheet or supernatant material was directly taken into HPLC sample vial.
Injected diluent as blank and linearity solutions in duplicate. Recorded the chromatograms and plotted the calibration curve, concentration (X-axis) versus Area (y-axis). The correlation coefficient for calibration curve should be not less than 0.95. If above criteria passes, then injected the test samples and recorded the chromatograms. In case saturated peaks are observed, then diluted the test sample with diluent as appropriate.
Calculated the slope and intercept of the calibration curve. From the standard curve, determined the solubility of the sample in μM (micromolar).

T1 sequence (Q86WV6 whole entry R71H/G230A/H232R/R293Q): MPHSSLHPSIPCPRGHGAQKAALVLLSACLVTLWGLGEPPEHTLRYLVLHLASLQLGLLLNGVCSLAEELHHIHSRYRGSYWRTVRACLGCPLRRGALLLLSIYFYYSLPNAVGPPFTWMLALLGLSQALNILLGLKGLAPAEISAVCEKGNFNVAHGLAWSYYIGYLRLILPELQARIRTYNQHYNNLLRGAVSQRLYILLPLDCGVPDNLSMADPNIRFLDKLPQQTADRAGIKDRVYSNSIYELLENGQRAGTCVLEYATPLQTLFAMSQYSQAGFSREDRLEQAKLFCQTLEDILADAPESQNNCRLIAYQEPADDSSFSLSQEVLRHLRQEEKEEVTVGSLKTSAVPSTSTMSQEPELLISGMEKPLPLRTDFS

| SMILES | EC50 [1] [nM] | solubility at 24 h [2] [µM] |
| --- | --- | --- |
| CCn1nc(C)cc1C(=O)Nc1nc2cc(C(N)=O)cc3c2n1C/C=C/Cn1c(NC(=O)c2cc(C)nn2CC)nc2cc(C(=O)N[C@H]4CC[C@@H](C(=O)O)CC4)cc(c21)OCCCO3 [Compound 1, (1S,4S)-4-((E)-12-carbamoyl-1,15-bis(1-ethyl-3-methyl-1H-pyrazole-5-carboxamido)-8,9,16,19-tetrahydro-7H-6,10-dioxa-2,14,15a,19a-tetraazacyclopentadeca[3,2,1-cd:8,9,10-c′d′]diindene-4-carboxamido)cyclohexane-1-carboxylic acid] | 11 to 100 |  |
| CCn1nc(C)cc1C(=O)Nc1nc2cc(C(N)=O)cc3c2n1C/C=C/Cn1c(NC(=O)c2cc(C)nn2CC)nc2cc(C(=O)NCCCc4nnn[nH]4)cc(c21)OCCCO3 [Compound 3, (E)-N-(3-(1H-tetrazol-5-yl)propyl)-1,15-bis(1-ethyl-3-methyl-1H-pyrazole-5-carboxamido)-8,9,16,19-tetrahydro-7H-6,10-dioxa-2,14,15a,19a-tetraazacyclopentadeca[3,2,1-cd:8,9,10-c′d′]diindene-4,12-dicarboxamide sodium salt] | 1 to 10 | 928 |
| CCn1nc(C)cc1C(=O)Nc1nc2cc(C(N)=O)cc3c2n1C/C=C/Cn1c(NC(=O)c2cc(C)nn2CC)nc2cc(C(=O)NCCc4nnn[nH]4)cc(c21)OCCCO3 [Compound 4, (E)-N-(2-(1H-tetrazol-5-yl)ethyl)-1,15-bis(1-ethyl-3-methyl-1H-pyrazole-5-carboxamido)-8,9,16,19-tetrahydro-7H-6,10-dioxa-2,14,15a,19a-tetraazacyclopentadeca[3,2,1-cd:8,9,10-c′d′]diindene-4,12-dicarboxamide] | 1 to 10 | 149 (≈ 126 µg/mL) |
| CCn1nc(C)cc1C(=O)Nc1nc2cc(C(N)=O)cc3c2n1C/C=C/Cn1c(NC(=O)c2cc(C)nn2CC)nc2cc(C(=O)NCCc4ccccc4C(=O)O)cc(c21)OCCCO3 [Compound 5, (E)-2-(2-(12-carbamoyl-1,15-bis(1-ethyl-3-methyl-1H-pyrazole-5-carboxamido)-8,9,16,19-tetrahydro-7H-6,10-dioxa-2,14,15a,19a-tetraazacyclopentadeca[3,2,1-cd:8,9,10-c′d′]diindene-4-carboxamido)ethyl)benzoic acid sodium salt] | 1 to 10 | 1120 |
| CCn1nc(C)cc1C(=O)Nc1nc2cc(C(N)=O)cc3c2n1C/C=C/Cn1c(NC(=O)c2cc(C)nn2CC)nc2cc(C(=O)N[C@H]4CC[C@@H](c5nnn[nH]5)CC4)cc(c21)OCCCO3 [Compound 7, (E)-N-((1S,4S)-4-(1H-tetrazol-5-yl)cyclohexyl)-1,15-bis(1-ethyl-3-methyl-1H-pyrazole-5-carboxamido)-8,9,16,19-tetrahydro-7H-6,10-dioxa-2,14,15a,19a-tetraazacyclopentadeca[3,2,1-cd:8,9,10-c′d′]diindene-4,12-dicarboxamide] | 11 to 100 |  |
| CCn1nc(C)cc1C(=O)Nc1nc2cc(C(N)=O)cc3c2n1C/C=C/Cn1c(NC(=O)c2cc(C)nn2CC)nc2cc(C(=O)NCc4ncccc4C(=O)O)cc(c21)OCCCO3 [Compound 9, (E)-2-((4-carbamoyl-1,15-bis(1-ethyl-3-methyl-1H-pyrazole-5-carboxamido)-8,9,16,19-tetrahydro-7H-6,10-dioxa-2,14,15a,19a-tetraazacyclopentadeca[3,2,1-cd:8,9,10-c′d′]diindene-12-carboxamido)methyl)nicotinic acid] | 11 to 100 | 100 (≈ 88.4 µg/mL) |
| CCn1nc(C)cc1C(=O)Nc1nc2cc(C(N)=O)cc3c2n1C/C=C/Cn1c(NC(=O)c2cc(C)nn2CC)nc2cc(C(=O)NCCCn4nn[nH]c4=O)cc(c21)OCCCO3 [Compound 10, (E)-1,15-bis(1-ethyl-3-methyl-1H-pyrazole-5-carboxamido)-N-(3-(5-oxo-4,5-dihydro-1H-tetrazol-1-yl)propyl)-8,9,16,19-tetrahydro-7H-6,10-dioxa-2,14,15a,19a-tetraazacyclopentadeca[3,2,1-cd:8,9,10-c′d′]diindene-4,12-dicarboxamide] | 11 to 100 | 631 (≈ 552 µg/mL) |
| CCn1nc(C)cc1C(=O)Nc1nc2cc(C(N)=O)cc3c2n1C/C=C/Cn1c(NC(=O)c2cc(C)nn2CC)nc2cc(C(=O)NCCCc4noc(=O)[nH]4)cc(c21)OCCCO3 [Compound 11, (E)-1,15-bis(1-ethyl-3-methyl-1H-pyrazole-5-carboxamido)-N-(3-(5-oxo-4,5-dihydro-1,2,4-oxadiazol-3-yl)propyl)-8,9,16,19-tetrahydro-7H-6,10-dioxa-2,14,15a,19a-tetraazacyclopentadeca[3,2,1-cd:8,9,10-c′d′]diindene-4,12-dicarboxamide] | 1 to 10 | 98 (≈ 85.7 µg/mL) |
| CCn1nc(C)cc1C(=O)Nc1nc2cc(C(N)=O)cc3c2n1C/C=C/Cn1c(NC(=O)c2cc(C)nn2CC)nc2cc(C(=O)NCCCc4nnn[nH]4)cc(c21)OC[C@@H](N1C2CCC1COC2)CO3 [Compound 16, (8S,E)-N4-(3-(1H-tetrazol-5-yl)propyl)-8-(3-oxa-8-azabicyclo[3.2.1]octan-8-yl)-1,15-bis(1-ethyl-3-methyl-1H-pyrazole-5-carboxamido)-8,9,16,19-tetrahydro-7H-6,10-dioxa-2,14,15a,19a-tetraazacyclopentadeca[3,2,1-cd:8,9,10-c′d′]diindene-4,12-dicarboxamide sodium salt] | 1 to 10 | 243 |
| CCn1nc(C)cc1C(=O)Nc1nc2cc(C(N)=O)cc3c2n1C/C=C/Cn1c(NC(=O)c2cc(C)nn2CC)nc2cc(C(=O)NCCCc4nnn[nH]4)cc(c21)OC[C@H](N1C2CCC1COC2)CO3 [Compound 17, (8R,E)-N4-(3-(1H-tetrazol-5-yl)propyl)-8-(3-oxa-8-azabicyclo[3.2.1]octan-8-yl)-1,15-bis(1-ethyl-3-methyl-1H-pyrazole-5-carboxamido)-8,9,16,19-tetrahydro-7H-6,10-dioxa-2,14,15a,19a-tetraazacyclopentadeca[3,2,1-cd:8,9,10-c′d′]diindene-4,12-dicarboxamide sodium salt] | 11 to 100 |  |
| CCn1nc(C)cc1C(=O)Nc1nc2cc(C(N)=O)cc3c2n1C/C=C/Cn1c(NC(=O)c2cc(C)nn2CC)nc2cc(C(=O)NCCCn4cc(C(=O)O)cn4)cc(c21)OC[C@@H](N1C2CCC1COC2)CO3 [Compound 18, 1-(3-((8S,E)-8-(3-oxa-8-azabicyclo[3.2.1]octan-8-yl)-12-carbamoyl-1,15-bis(1-ethyl-3-methyl-1H-pyrazole-5-carboxamido)-8,9,16,19-tetrahydro-7H-6,10-dioxa-2,14,15a,19a-tetraazacyclopentadeca[3,2,1-cd:8,9,10-c′d′]diindene-4-carboxamido)propyl)-1H-pyrazole-4-carboxylic acid sodium salt] | 1 to 10 | 250 |
| CCn1nc(C)cc1C(=O)Nc1nc2cc(C(N)=O)cc3c2n1C/C=C/Cn1c(NC(=O)c2cc(C)nn2CC)nc2cc(C(=O)NCCCn4cc(C(=O)O)cn4)cc(c21)OC[C@H](N1C2CCC1COC2)CO3 [Compound 19, 1-(3-((8R,E)-8-(3-oxa-8-azabicyclo[3.2.1]octan-8-yl)-12-carbamoyl-1,15-bis(1-ethyl-3-methyl-1H-pyrazole-5-carboxamido)-8,9,16,19-tetrahydro-7H-6,10-dioxa-2,14,15a,19a-tetraazacyclopentadeca[3,2,1-cd:8,9,10-c′d′]diindene-4-carboxamido)propyl)-1H-pyrazole-4-carboxylic acid sodium salt] | 11 to 100 |  |
| CCn1nc(C)cc1C(=O)Nc1nc2cc(C(N)=O)cc3c2n1C/C=C/Cn1c(NC(=O)c2cc(C)nn2CC)nc2cc(C(=O)N[C@H]4CC[C@H](C(=O)O)CC4)cc(c21)OCC(N1CC2CCC(C1)O2)CO3 (stereo partly drawn) [Compound 20, (1R,4R)-4-((E)-8-(8-oxa-3-azabicyclo[3.2.1]octan-3-yl)-12-carbamoyl-1,15-bis(1-ethyl-3-methyl-1H-pyrazole-5-carboxamido)-8,9,16,19-tetrahydro-7H-6,10-dioxa-2,14,15a,19a-tetraazacyclopentadeca[3,2,1-cd:8,9,10-c′d′]diindene-4-carboxamido)cyclohexane-1-carboxylic acid] | 11 to 100 |  |
| CCn1nc(C)cc1C(=O)Nc1nc2cc(C(N)=O)cc3c2n1C/C=C/Cn1c(NC(=O)c2cc(C)nn2CC)nc2cc(C(=O)N[C@H]4CC[C@H](c5nnn[nH]5)CC4)cc(c21)OCC(N1CC2CCC(C1)O2)CO3 (stereo partly drawn) [Compound 22, (E)-N-((1R,4R)-4-(1H-tetrazol-5-yl)cyclohexyl)-8-(8-oxa-3-azabicyclo[3.2.1]octan-3-yl)-1,15-bis(1-ethyl-3-methyl-1H-pyrazole-5-carboxamido)-8,9,16,19-tetrahydro-7H-6,10-dioxa-2,14,15a,19a-tetraazacyclopentadeca [3,2,1-cd:8,9,10-c′d′]diindene-4,12-dicarboxamide] | 11 to 100 |  |
